The values below are quoted from earlier work in patent US7053240B2, “Process for synthesizing disulfides” (BioNumerik Pharmaceuticals, Inc., priority 2003, dated 2006).

The test system of one data set is dogs. To be noted: intravenously, doses higher than 3750 mg/kg.
The test system of the next data set is mice. The settings on record: intravenously, doses higher than 3750 mg/kg.
For data set [1] the following is noted: accepted value.

On to `O=S(=O)(O)CCSSCCS(=O)(=O)O` [Dimesna, disodium 2,2′-dithiobis ethane sulfonate], for which the adverse effects result in the data set on dogs and with mice was “no adverse effects” in each case.

As to `[Cl-].[Na+]` [common table salt], the “oral LD50” value in data set [1] is listed as 3750 mg/kg.
